BigSolDB 2.1

O=c1cc(CO)occ1O
Conditions	solubility (mole fraction)
in 1,4-dioxane, 288.15 K	0.00698
in 1,4-dioxane, 293.15 K	0.0086
in 1,4-dioxane, 298.15 K	0.0103
in 1,4-dioxane, 303.15 K	0.0121
in 1,4-dioxane, 308.15 K	0.0153
in 1,4-dioxane, 313.15 K	0.018
in 1,4-dioxane, 318.15 K	0.0209
in 2-ethoxyethanol, 278.15 K	0.0134
in 2-ethoxyethanol, 283.15 K	0.015
in 2-ethoxyethanol, 288.15 K	0.0177
in 2-ethoxyethanol, 293.15 K	0.0204
in 2-ethoxyethanol, 298.15 K	0.0233
in 2-ethoxyethanol, 303.15 K	0.0261
in 2-ethoxyethanol, 308.15 K	0.03
in 2-ethoxyethanol, 313.15 K	0.034
in 2-ethoxyethanol, 318.15 K	0.0381
in 2-ethoxyethanol, 323.15 K	0.0435
in 2-methoxyethanol, 278.15 K	0.0181
in 2-methoxyethanol, 283.15 K	0.0214
in 2-methoxyethanol, 288.15 K	0.0252
in 2-methoxyethanol, 293.15 K	0.0287
in 2-methoxyethanol, 298.15 K	0.0331
in 2-methoxyethanol, 303.15 K	0.0377
in 2-methoxyethanol, 308.15 K	0.0431
in 2-methoxyethanol, 313.15 K	0.0491
in 2-methoxyethanol, 318.15 K	0.0559
in 2-methoxyethanol, 323.15 K	0.0625
in DMAc, 278.15 K	0.148
in DMAc, 283.15 K	0.157
in DMAc, 288.15 K	0.165
in DMAc, 293.15 K	0.174
in DMAc, 298.15 K	0.184
in DMAc, 303.15 K	0.194
in DMAc, 308.15 K	0.205
in DMAc, 313.15 K	0.216
in DMAc, 318.15 K	0.228
in DMAc, 323.15 K	0.24
in DMF, 278.15 K	0.0977
in DMF, 283.15 K	0.106
in DMF, 288.15 K	0.114
in DMF, 293.15 K	0.123
in DMF, 298.15 K	0.135
in DMF, 303.15 K	0.147
in DMF, 308.15 K	0.157
in DMF, 313.15 K	0.168
in DMF, 318.15 K	0.18
in DMF, 323.15 K	0.193
in DMSO, 293.15 K	0.238
in DMSO, 298.15 K	0.249
in DMSO, 303.15 K	0.259
in DMSO, 308.15 K	0.268
in DMSO, 313.15 K	0.28
in DMSO, 318.15 K	0.292
in DMSO, 323.15 K	0.303
in DMSO, 328.15 K	0.316
in DMSO, 333.15 K	0.331
in NMP, 278.15 K	0.17
in NMP, 283.15 K	0.179
in NMP, 288.15 K	0.185
in NMP, 293.15 K	0.193
in NMP, 298.15 K	0.201
in NMP, 303.15 K	0.208
in NMP, 308.15 K	0.216
in NMP, 313.15 K	0.223
in NMP, 318.15 K	0.232
in NMP, 323.15 K	0.241
in acetic acid, 293.15 K	0.0139
in acetic acid, 298.15 K	0.0169
in acetic acid, 303.15 K	0.0204
in acetic acid, 308.15 K	0.0246
in acetic acid, 313.15 K	0.0293
in acetic acid, 318.15 K	0.0353
in acetic acid, 323.15 K	0.0425
in acetic acid, 328.15 K	0.0511
in acetic acid, 333.15 K	0.0613
in acetone, 278.15 K	0.00224
in acetone, 283.15 K	0.00276
in acetone, 288.15 K	0.00324
in acetone, 293.15 K	0.00383
in acetone, 298.15 K	0.00455
in acetone, 303.15 K	0.00556
in acetone, 308.15 K	0.00686
in acetone, 313.15 K	0.008
in acetone, 318.15 K	0.00932
in acetone, 323.15 K	0.0106
in ethanol, 278.15 K	0.0031
in ethanol, 283.15 K	0.00374
in ethanol, 288.15 K	0.00459
in ethanol, 293.15 K	0.00595
in ethanol, 298.15 K	0.00739
in ethanol, 303.15 K	0.00893
in ethanol, 308.15 K	0.0108
in ethanol, 313.15 K	0.013
in ethanol, 318.15 K	0.0158
in ethanol, 323.15 K	0.0191
in ethyl acetate, 278.15 K	0.000804
in ethyl acetate, 283.15 K	0.00105
in ethyl acetate, 288.15 K	0.00137
in ethyl acetate, 293.15 K	0.00169
in ethyl acetate, 298.15 K	0.00201
in ethyl acetate, 303.15 K	0.00242
in ethyl acetate, 308.15 K	0.00296
in ethyl acetate, 313.15 K	0.00338
in ethyl acetate, 318.15 K	0.00411
in ethyl acetate, 323.15 K	0.00497
in methanol, 278.15 K	0.00492
in methanol, 283.15 K	0.00606
in methanol, 288.15 K	0.00737
in methanol, 293.15 K	0.00891
in methanol, 298.15 K	0.011
in methanol, 303.15 K	0.0132
in methanol, 308.15 K	0.0156
in methanol, 313.15 K	0.0189
in methanol, 318.15 K	0.0223
in methanol, 323.15 K	0.0267
in n-propanol, 278.15 K	0.00225
in n-propanol, 283.15 K	0.00281
in n-propanol, 288.15 K	0.00339
in n-propanol, 293.15 K	0.00423
in n-propanol, 298.15 K	0.00524
in n-propanol, 303.15 K	0.00646
in n-propanol, 308.15 K	0.00782
in n-propanol, 313.15 K	0.00964
in n-propanol, 318.15 K	0.0116
in n-propanol, 323.15 K	0.0139
in water, 278.15 K	0.00216
in water, 283.15 K	0.00276
in water, 288.15 K	0.00353
in water, 293.15 K	0.0043
in water, 298.15 K	0.00553
in water, 303.15 K	0.00679
in water, 308.15 K	0.00873
in water, 313.15 K	0.0113
in water, 318.15 K	0.0143
in water, 323.15 K	0.0185
